From patent US7348305B2, “Inhibitor of cardiac tachyarrhythmias” (Department of Veterans Affairs, Rehabilitation, priority 2003, dated 2008)

Test system: myocardial infarct
Test: Model 2: 2-hr LAD occlusion/4-hr reperfusion, infarct size
Assay type: in vivo, dog
Description: Model 2: Acute changes in infarct size. Seventeen 15-22 kg male mongrel dogs were anesthetized and respired as described above. Body temperature was maintained using a temperature-controlled operative table bed and fluid replacement. Two EKG leads (L-II and V-3) and arterial pressure (left femoral) were continuously monitored during the experiment. […] After 4 hours of reperfusion, the heart was removed and rinsed with room-temperature Tyrode's solution. Cannulae were placed into the proximal aorta and into the LAD artery at the site of occlusion for perfusion with Evans blue (0.1%) and TTZ (0.1%), respectively, at equal pressure (80 mmHg). The area at risk of infarction was delineated by its red color (surviving myocardium) or a pale color (infarct) with the remaining heart stained by Evan's blue. The heart was then sliced to provide a 5 mm thick section parallel to the AV groove. After storage overnight in buffered formalin, infarcted tissue, surviving myocardium within the anatomic area at risk of infarction, and left ventricle outside the area at risk of infarction were separated using a scalpel blade. Infarct mass, area at risk of infarction, left ventricular mass, and total heart mass were determined gravimetrically. Anti-TNFα Treatment: A dosage of 2 mg/kg hTNFR:Fc (supplied as etanercept, Amgen, Inc, Thousand Oaks, Calif.) or saline were injected IV into a forepaw vein at 24-hr and again 1-hr prior to LAD ligation. […] This dosage was used after consultation with the pharmaceutical corporate pharmacology section and based on unpublished internal data that this dosage would provide maximal sequestration of tissue and circulating TNFα.

[1] = etanercept pretreated, 2-hr occlusion/4-hr reperfusion

Q: What does the source list for etanercept?
A: decrease in infarct size (% area at risk) compared to saline [1]: 61%; decrease in infarct size (% left ventricular mass) compared to saline [1]: 54%; infarct size, % left ventricular mass (LV) (etanercept pretreated, 2-hr occlusion/4-hr reperfusion, n=8, saline 13±1): 6±1 % LV; infarct size, % area at risk (AR) (etanercept pretreated, 2-hr occlusion/4-hr reperfusion, n=8, saline 38±6): 15±2 % AR; reduction of infarct size expressed as % left ventricular mass or % area at risk (etanercept pretreatment, Model 2, approximate summary): approximately 50%
